Laboratory results: patent EP4685149A1, “NOVEL COMPOUND AS ENDOTHELIAL TO MESENCHYMAL TRANSITION (ENDMT) INHIBITOR, AND PHARMACEUTICAL COMPOSITION COMPRISING SAME” (Korea Institute of Radiological & Medical Sciences, priority 2023, dated 2024)
Read-outs that look alike come from different tables or passages of the source.

Tested on: human vascular endothelial cell lines
Assay: Inhibition of radiation-induced endothelial cell transition (EndMT), phalloidin immunofluorescence staining
Type: cell-based
Settings: 10 uM test substance 1 hour before 10 Gy irradiation, 72 hours after irradiation, relative ratio with IR group (10 Gy alone) as 100%; for activity at 10 µM: Homo sapiens, Endothelial cell, light or radiation study
Experimental: Test substances (Examples 1 to 45) were treated with a 10 mM DMSO solution at a ratio of 1 µL per 1 mL of cell culture medium to a final concentration of 10 uM, and the test substances were treated 1 hour before irradiation on human vascular endothelial cell lines (Promocell, Germany), and then, it was irradiated at an intensity of 10 Gy. 72 hours after irradiation, the human vascular endothelial cell lines were fixed with 10% formalin, and the experiment was conducted according to the manufacturer's method using phalloidin (Invitrogen, USA) to confirm the cytoskeleton filaments that increase during fibrosis. Phalloidin is a protein that binds to the actin of cytoskeleton filaments, and phalloidin conjugated with FITC fluorescent substance made the cytoskeleton filaments appear green when observed under a microscope.
After treatment with the test substance, the area, length and density of phalloidin were measured by using a confocal microscope, and the relative ratio was expressed with the irradiated group (IR group) that was irradiated with 10 Gy alone as 100% (Table 1).

Row | SMILES | activity at 10 µM (read-out: Palloidin Area) [%] | activity at 10 µM (read-out: Palloidin Intensity) [%] | activity at 10 µM (read-out: Palloidin Length) [%] | Palloidin Length
1 | O=C(O)c1ccc2c(c1)CC[C@H]2Nc1nc(Cl)nc2c1ncn2[C@@H]1SC[C@@H](O)[C@H]1O [Example 33, (R)-1-((2-chloro-9-((2R,3R,4S)-3,4-dihydroxytetrahydrothiophen-2-yl)-9H-purin-6-yl)amino)-2,3-dihydro-1H-indene-5-carboxylic acid] | > 80 | > 80 | > 80 | 
2 | NC(=O)c1ccc2c(c1)CC[C@H]2Nc1nc(Cl)nc2c1ncn2[C@@H]1SC[C@@H](O)[C@H]1O [Example 34, (R)-1-((2-chloro-9-((2R,3R,4S)-3,4-dihydroxytetrahydrothiophen-2-yl)-9H-purin-6-yl)amino)-2,3-dihydro-1H-indene-5-carboxamide] | > 80 | > 80 |  | + +
3 | O[C@@H]1[C@H](O)CS[C@H]1n1cnc2c(NC3CCc4ccccc4C3)nc(Cl)nc21 (stereo partly drawn) [Example 35, (2R,3R,4S)-2-(2-chloro-6-((1,2,3,4-tetrahydronaphthalen-2-yl)amino)-9H-purin-9-yl)tetrahydrothiophene-3,4-diol] | > 80 | > 80 | > 80 | 
4 | O[C@@H]1[C@H](O)CS[C@H]1n1cnc2c(N[C@H]3CCc4ccccc4C3)nc(Cl)nc21 [Example 36, (2R,3R,4S)-2-(2-chloro-6-(((S)-1,2,3,4-tetrahydronaphthalen-2-yl)amino)-9H-purin-9-yl)tetrahydrothiophene-3,4-diol] | > 80 | > 80 | > 80 | 
5 | O[C@@H]1[C@H](O)CS[C@H]1n1cnc2c(N[C@@H]3CCc4ccccc4C3)nc(Cl)nc21 [Example 37, (2R,3R,4S)-2-(2-chloro-6-(((R)-1,2,3,4-tetrahydronaphthalen-2-yl)amino)-9H-purin-9-yl)tetrahydrothiophene-3,4-diol] | 50 to 80 | 50 to 80 | > 80 | 
6 | O[C@@H]1[C@H](O)CS[C@H]1n1cnc2c(NC3CCCc4ccccc43)nc(Cl)nc21 (stereo partly drawn) [Example 38, (2R,3R,4S)-2-(2-chloro-6-((1,2,3,4-tetrahydronaphthalen-1-yl)amino)-9H-purin-9-yl)tetrahydrothiophene-3,4-diol] | > 80 | > 80 | > 80 | 
7 | O[C@@H]1[C@H](O)CS[C@H]1n1cnc2c(N[C@@H]3CCCc4ccccc43)nc(Cl)nc21 [Example 39, (2R,3R,4S)-2-(2-chloro-6-(((R)-1,2,3,4-tetrahydronaphthalen-1-yl)amino)-9H-purin-9-yl)tetrahydrothiophene-3,4-diol] | > 80 | > 80 | > 80 | 
8 | O[C@@H]1[C@H](O)CS[C@H]1n1cnc2c(N[C@H]3CCCc4ccccc43)nc(Cl)nc21 [Example 40, (2R,3R,4S)-2-(2-chloro-6-(((S)-1,2,3,4-tetrahydronaphthalen-1-yl)amino)-9H-purin-9-yl)tetrahydrothiophene-3,4-diol] | > 80 | > 80 | > 80 | 
9 | O[C@@H]1[C@H](O)CS[C@H]1n1cnc2c(N[C@@H]3Cc4ccccc43)nc(Cl)nc21 [Example 41, (2R,3R,4S)-2-(6-(((R)-bicyclo[4.2.0]octa-1(6),2,4-trien-7-yl)amino)-2-chloro-9H-purin-9-yl)tetrahydrothiophene-3,4-diol] | > 80 | 50 to 80 | > 80 | 
10 | O[C@@H]1[C@H](O)CS[C@H]1n1cnc2c(NC3CCCCc4ccccc43)nc(Cl)nc21 (stereo partly drawn) [Example 42, (2R,3R,4S)-2-(2-chloro-6-((6,7,8,9-tetrahydro-5H-benzo[7]annulen-5-yl)amino)-9H-purin-9-yl)tetrahydrothiophene-3,4-diol] | > 80 | > 80 | > 80 | 
11 | O[C@@H]1[C@H](O)CS[C@H]1n1cnc2c(NC3CCc4ccccc4CC3)nc(Cl)nc21 [Example 43, (2R,3R,4S)-2-(2-chloro-6-((6,7,8,9-tetrahydro-5H-benzo[7]annulen-7-yl)amino)-9H-purin-9-yl)tetrahydrothiophene-3,4-diol] | > 80 | > 80 | > 80 | 
12 | O[C@@H]1[C@H](O)CS[C@H]1n1cnc2c(N[C@@H]3CCc4ccccc43)nc(I)nc21 [Example 44, (2R,3R,4S)-2-(6-(((R)-2,3-dihydro-1H-inden-1-yl)amino)-2-iodo-9H-purin-9-yl)tetrahydrothiophene-3,4-diol] | 20 to 50 | 20 to 50 | 20 to 50 | 
13 | O[C@@H]1[C@H](O)CS[C@H]1n1cnc2c(N[C@@H]3CCc4ccccc43)ncnc21 [Example 45, (2R,3R,4S)-2-(6-(((R)-2,3-dihydro-1H-inden-1-yl)amino)-9H-purin-9-yl)tetrahydrothiophene-3,4-diol] | > 80 | > 80 | > 80 | 
